# Assay results reported in patent US9682994B2, “Inhibitors of retroviral replication” (The Scripps Research Institute, priority 2011, dated 2017).
# Entries after “also recorded” stand apart in the source; their conditions may differ.
# What was measured:
# [1] = tested on: basic region Tat mutant (Tat-1 BRM); assay: Biotinylated compound pull-down of basic region Tat mutant; assay type: binding, HIV-1
# Method: HEK293T cells were transfected with flag-tagged Tat 101 a.a. (Tat-F-101-wt), a shorter Tat version with 86 a.a. (Tat-F-86-wt), Tat 86 a.a. mutated in the basic domain (Tat-F-BRM), flag-tagged CDK11 (CDK11-F), flag-tagged 9G8 (9G8-F) and empty vector control.
# DYNABEADS® MYONE™ Streptavidin T1 (12.5 μl slurry) (Invitrogen) were pre-saturated with 1.88 μl of 1 mM in DMSO of Biotin alone or Bio-dCA and incubated for 1 h at room temperature with orbital rocking, plus an additional 30 min with Biotin (0.63 μl of 1 mM in DMSO). Protein extracts (250 μg per sample) were incubated with the pre-saturated beads in lysis buffer supplemented with 0.1% BSA for 1 h at 4° C. with orbital rocking. After incubation, the beads were washed three times with lysis buffer.
# Tat = assay: Tat-flag sub-cellular localization by immunofluorescence; assay type: cell-based, HIV-1; settings: HeLa-CD4 cells transfected with Tat-flag
# Method: Flag epitope-tagged Tat was recognized with anti-flag and AlexaFluor 568 anti-IgG. Transfections were performed in HeLa-CD4 cells. Magnification 300×.
# Flag recognized with anti-flag and AlexaFluor 568 anti-IgG antibodies. Endogenous fibrillarin stained with anti-fibrillarin and FITC-anti-IgG antibodies.
# HeLa cells were grown on fibronectin treated coverslips and transfected with the indicated plasmids. Following transfection, cells were treated with DMSO or dCA. Cells were then fixed with 3.7% formaldehyde. After fixation, the cells were permeabilized with 0.1% triton X-100 in PBS with 5% FBS. Primary antibodies (mouse α-FLAG M2 (Sigma), rabbit α-Fibrillarin C13C3 (Cell Signaling), and/or rabbit α-Cyclin T1 H-245 (Santa Cruz)) were added along with the permeabilization solution and incubated at room temperature for 1 hour. The cells were washed with PBS and incubated with 1:500 dilution of Alexa Fluor conjugated secondary antibodies in PBS containing 5% FBS for 1 hour in the dark. […]
# Given that dCA interacts with Tat via its basic domain, which is also the nucleolar localization signal (NoLS), it was questioned whether dCA impacts Tat localization. […] The Tat basic mutant was analyzed in parallel, and this protein was completely excluded from the nucleolus both in the presence or absence of dCA.
# HIV = assay: Viral RNA release from CD4+ T cells of aviremic (HAART) subjects, ultrasensitive RT-PCR; assay type: cell-based, human
# Method: All patients provided written informed consent, according to the guidelines of the ethics committee of the Oregon Health and Science University. […] Viral production was measured in the supernatant by a sensitive in-house ELISA specific for the viral capsid protein, p24. […] Viral production was measured by quantification of viral particle-associated RNA by ultra-sensitive two-step quantitative real-time reverse transcription-PCR (RT-qPCR). Briefly, viral particles in the cell culture supernatant were pelleted by centrifugation (60 min, 25000 g at 4° C.). To generate the standard curve, a sample of LAI-HIV with known titer was pelleted in the same run. […]
# Total viral RNA was reverse-transcribed into cDNA with gag gene-specific primers (25 pmol each), LM667 and GagR according to manufacturer's instructions (RT-PCR One Step kit—Invitrogen). Pre-amplified products were diluted in DNase-RNase free water, then subjected to quantitative real-time PCR on Rotor-Gene Q (Qiagen) in a reaction 25 pmol of the sense primer Lambda T, 25 pmol of the antisense primer AA55M, and 4 pmol of each hybridization probes (TIB MolBiol).
# Total viral RNA (17 μL) was first treated with 1 unit DNase I (Invitrogen) for 10 min at 25° C. followed by DNase I inactivation with 1 μL 25 mM EDTA for 10 min at 65° C. Total viral RNA was then reverse-transcribed into cDNA for quantitative PCR analysis. […]
# [2] = Aqueous solubility / formulation in water; assay type: physicochemical; settings: formulated 1 mg/mL in water
# [3] = Hepatic microsomal stability, human; assay type: in vitro ADME; settings: 1 μM, 0.2-1 mg/ml microsomes, NADPH 1 mM
# Excerpt: In vitro studies compared murine and human hepatic microsomes (150 donor mixed male/female pool).
# HIV-1 pNL43 = assay: Viral rebound after termination of treatment, chronically infected HeLa-CD4 cells; assay type: cell-based; settings: up to 27 days after stop
# Excerpt: Total RNA was extracted and reverse transcribed with random hexamer primers. The viral mRNA copies were quantified by qPCR and normalized with GAPDH mRNA. Viral mRNA output from untreated cells was assigned as 1. RNA extracts were used in the qPCR as negative control for the presence of genomic DNA contamination, 0.1% of the amplification of the cDNA samples is due to genomic DNA. The error represents a covariance of less than 5%.
# FIG. 4B: Same as in FIG. 4A however the treatment was stopped for 27 days before harvest of the cells.
smiles,measurement,setting,value
"CN(C)[C@H]1C[C@@]23CC[C@@]4(O2)C(=CC[C@]2(C)C(c5ccc6ccncc6c5)=CC[C@H]24)C=C3[C@@H](O)[C@@H]1O [dCA, didehydro-Cortistatin A]",interaction with TAR-nonbinding basic region Tat mutant (pull-down),[1],not
same,effect on Tat localization,Tat,redistribution of Tat to the periphery of the nucleolus
same,viability of the cells,HIV; at the concentrations used,did not affect the viability
same,reduction of viral production,"HIV; day 6, in the presence of ARVs, no IL-2",99.7%
same,aqueous solubility,[2],high aqueous solubility; also recorded: highly soluble in water
same,"T1/2 hepatic microsomes, Human",[3],1 h
same,virus rebound after treatment stopped,HIV-1 pNL43,No virus rebound
